Results from US11406649B2, “Treatment of upper aerodigestive tract disorders and cough” (IVIEW THERAPEUTICS, INC., priority 2018, dated 2022).
In brackets after ≈: the same amount, converted by molar mass.

Experiments:
Oral Cavity and Pharynx = assay: Sensory qualities of compounds in syrup applied to base of tongue of volunteers; format: in vivo, human; details: for duration of unpleasant tastes: metallic, organic solvent-like, harsh
Description: The DIPA compounds was 5 mg/mL in cherry-flavored syrup in a volume of 0.8 mL per dose. The sensory effect were recorded every 5 min for 1 hr.
Tests were on four volunteers, with 3 to 5 trials per substance. Compounds were prepared in cherry-flavored syrup at 5 mg/mL and administered ˜0.8 mL per dose with a 2 mL plastic vial to the base of the tongue. The subjects asked to rate the sensations for cooling intensity, cold discomfort and adverse taste.
The concentration of the DIPA compounds was 5 mg/mL in cherry-flavored syrup administered in a volume of 0.8 mL per dose. The sensory effect were recorded every 5 min for 1 hr.

[1] = Water solubility of 1-dialkylphosphorylalkanes; format: physicochemical; details: water
Excerpt: The DIPA compounds are colorless liquids with a density less than water. These structures differ from those described by Rowsell and Spring U.S. Pat. No. 4,070,496 because '496 structures have their “head” (phosphine oxide group) covered by larger, more lipophilic groups. […] The applicant synthesized these analogs (which are achiral, by contrast to the structures of '496 which are >95% chiral). […] This increased water-solublility is striking (Table 3). […] The DIPA analogs are now mobile in the extracellular fluids and permeate between cells to access nerve endings in the stratum basale.

[2] = system: respiratory syncytial virus (RSV) induced cough; assay: Mouse cough model of respiratory syncytial virus infection; format: in vivo; details: 1 mg perioral per mouse, 1 hr before count
cloned hTRPM8 channel = cloned hTRPM8 channel (Homo sapiens (Human), UniProt Q7Z2W7); assay: TRPM8 agonist activity, Fluo-8 calcium FLIPR assay (ChanTest); format: cell-based; details: for Relative Potency to L-menthol: L-menthol = 1.0; for TRPM8 Relative Potency: Table 8, DIPA-1-7 = 1
Description: In the first set of data, the potency and in vitro effects of test compounds were evaluated on cloned hTRPM8 channel (encoded by the human TRPM8 gene, expressed in CHO cells) using a Fluo-8 calcium kit and a Fluorescence Imaging Plate Reader (FLIPR^TETRA™) instrument. […] Test solutions were in a HEPES-buffered saline, in 384-well plates, and placed into the FLIPR instrument (Molecular Devices Corporation, Union City, Calif., USA). […] The test cells were Chinese Hamster Ovary (CHO) cells stably transfected with human TRPM8 cDNAs. Concentration-response data were analyzed via FLIPR Control software) and fitted to a Hill equation for the EC50.

[3] = system: acid-induced swallowing movements; assay: Suppression of acid-induced swallowing movements in the anesthetized rat; format: in vivo; details: for EC50: anesthetized rat; for Relative Potency: suppression of acid-induced swallowing
Excerpt: A principal endogenous irritant in the linings of the upper aerodigestive tract is hydrochloric acid. Acid stimulations of the mucosa of the pharynx will elicit reflex swallowing. […] In a rat animal model, solutions of organic acids such as acetic acid and citric acid were effective in eliciting swallowing [Kajii et al., Sour taste stimulation facilitates reflex swallowing from the pharynx and larynx in the rat Physiology & Behavior 77: 321-325, 2002]. These methods for measuring sensory responses to acid can be adapted for screening the activity of DIPA-1-9. An agent that stimulates swallowing or an agent that suppress the acid challenge may then have utility in relieving dysphagia or the discomfort of heartburn, respectively. Preliminary experiments were conducted at the Pavlov Institute of Physiology, St. Petersburg, Russia, using adult male Wistar rats (see Table 11) and Wei (US 0.2015/0111852 A1). Swallowing movements was identified as the electromyogram activity and could also be visualized as laryngeal movement. Work is in progress to get more results for DIPA-1-9.

oropharynx and esophagus = assay: Sensory events and cold discomfort of compounds on throat, chest and body; details: for icy cold / pain in throat: DIPA-1-9 up to 12 mg per unit
Description: The terms “icy cold” is used to describe this adverse event in the throat.
Most likely, the compound rapidly distributed and activated cold sensations in the eosophageal lining.

rat skin = assay: Skin irritation tests on rat skin; format: in vivo; set-up: key to Redness after 20 μL applied topically to skin (scale of 0 to +++): scale of 0 to +++; scale of 0 to +++; scale of 0 to +++; scale of 0 to +++; details: for Redness after 20 μL applied topically to skin (scale of 0 to +++): rat skin; for skin irritancy: undiluted form
[4] = 5 mg/mL in cherry-flavored syrup, ~0.8 mL
[5] = 5 mg/mL in cherry-flavored syrup

Chain of cloned hTRPM8 channel (Q7Z2W7 whole entry): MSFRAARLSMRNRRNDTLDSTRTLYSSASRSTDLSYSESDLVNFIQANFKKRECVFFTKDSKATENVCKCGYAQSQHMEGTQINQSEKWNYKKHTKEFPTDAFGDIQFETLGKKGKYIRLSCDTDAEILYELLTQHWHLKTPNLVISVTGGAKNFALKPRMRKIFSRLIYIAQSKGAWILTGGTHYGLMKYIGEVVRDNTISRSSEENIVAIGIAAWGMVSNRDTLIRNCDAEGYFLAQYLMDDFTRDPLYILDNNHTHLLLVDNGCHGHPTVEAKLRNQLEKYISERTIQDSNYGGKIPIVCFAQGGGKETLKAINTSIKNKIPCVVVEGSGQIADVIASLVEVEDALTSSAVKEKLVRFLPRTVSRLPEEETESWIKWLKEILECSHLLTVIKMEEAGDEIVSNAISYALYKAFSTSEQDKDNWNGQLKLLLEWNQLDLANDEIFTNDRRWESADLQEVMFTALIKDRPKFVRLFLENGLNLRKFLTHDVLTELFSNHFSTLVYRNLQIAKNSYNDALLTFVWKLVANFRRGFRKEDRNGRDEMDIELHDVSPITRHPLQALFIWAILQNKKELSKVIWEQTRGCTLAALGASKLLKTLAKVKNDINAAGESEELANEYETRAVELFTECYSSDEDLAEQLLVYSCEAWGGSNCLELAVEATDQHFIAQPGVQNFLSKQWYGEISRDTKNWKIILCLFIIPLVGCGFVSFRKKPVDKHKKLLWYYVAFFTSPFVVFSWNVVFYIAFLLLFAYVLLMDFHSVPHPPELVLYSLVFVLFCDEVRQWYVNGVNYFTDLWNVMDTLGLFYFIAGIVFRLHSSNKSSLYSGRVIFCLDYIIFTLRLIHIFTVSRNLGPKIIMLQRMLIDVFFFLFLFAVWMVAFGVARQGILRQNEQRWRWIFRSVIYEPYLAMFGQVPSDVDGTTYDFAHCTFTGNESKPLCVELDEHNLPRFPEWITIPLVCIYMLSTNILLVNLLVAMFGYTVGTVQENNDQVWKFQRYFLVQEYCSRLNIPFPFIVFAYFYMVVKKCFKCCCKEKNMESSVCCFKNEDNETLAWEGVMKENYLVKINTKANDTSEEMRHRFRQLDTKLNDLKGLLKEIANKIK

Compound	solubility [1] [mg/mL]	Relative Potency to L-menthol (cloned hTRPM8 channel)	Sensation (Oral Cavity and Pharynx; [4])	duration of unpleasant tastes (Oral Cavity and Pharynx)	EC50 [3] [µg/mL]	Relative Potency [3]	TRPM8 Relative Potency (cloned hTRPM8 channel)	other results
CCCCCC[P@@](=O)(C(C)C)[C@@H](C)CC [3,4-6, 1-(Isopropyl-sec-butyl)-phosphinoyl-hexane]	25 (≈ 108 mM)							Adverse Taste (Oral Cavity and Pharynx; [4]): 0
CCCCCCC[P@@](=O)(C(C)C)[C@@H](C)CC [3,4-7, 1-(Isopropyl-sec-butyl)-phosphinoyl-heptane]	20 (≈ 81.2 mM)							
COc1ccc2c3c1O[C@H]1[C@@H](O)C=C[C@H]4[C@@H](C2)N(C)CC[C@@]341 [Codeine, reference compound]								cough frequency [2]: significantly inhibited cough frequency
CCCCP(=O)(C(C)CC)C(C)CC (centres unmarked) [DAPA-2-4, 1-Di(sec-butyl)-phosphinoyl-butane]		0.3						
CCCCCP(=O)(C(C)CC)C(C)CC (centres unmarked) [DAPA-2-5, 1-di-sec-butyl-phosphorylpentane]	22 (≈ 94.7 mM)	2.2						
CCCCCCP(=O)(C(C)CC)C(C)CC (centres unmarked) [DAPA-2-6, 1-Di(sec-butyl)-phosphinoyl-hexane]	8 (≈ 32.5 mM)	4.7	icy cold	at least 15 min	1700 ± 700 (≈ 6.9 mM)	0.05	0.87	sensory effects (Oral Cavity and Pharynx; [5]): cold, icy cold, and adverse tastes; icy cold / pain in throat (oropharynx and esophagus): icy cold; Redness after 20 μL applied topically to skin (scale of 0 to +++) (rat skin): +; skin irritancy (rat skin): skin irritants
CCCCCCCP(=O)(C(C)CC)C(C)CC (centres unmarked) [DAPA-2-7, 1-Di(sec-butyl)-phosphinoyl-heptane]	< 3	3.4	icy cold	at least 15 min	200 ± 20 (≈ 0.768 mM)	0.45	0.64	sensory effects (Oral Cavity and Pharynx; [5]): cold, icy cold, and adverse tastes; Comments: duration of effect ([3]; long-lasting): lasting; > ~30 min; icy cold / pain in throat (oropharynx and esophagus): icy cold; systemic sensations of cold (oropharynx and esophagus; higher oral doses (5 mg or more)): sensations of cold on other body surfaces; Redness after 20 μL applied topically to skin (scale of 0 to +++) (rat skin): ++; skin irritancy (rat skin): skin irritants
CCCCCCCCP(=O)(C(C)CC)C(C)CC (centres unmarked) [DAPA-2-8, 1-Di(sec-butyl)-phosphinoyl-octane]	< 3	2.9	cold	at least 15 min	560 ± 170 (≈ 2.04 mM)	0.16	0.71	
